In article PMC8100298, “Histone deacetylase inhibitor resminostat in combination with sorafenib counteracts platelet-mediated pro-tumoral effects in hepatocellular carcinoma” (Scientific Reports, 2021):
Where two headings read alike, the source gives them in different places.

Legend:
[1] = system: Hep3B2.1-7 human hepatic carcinoma; details: for Survival / Tumour weight, Mean: 21 days; for Tumour weight, Mean: SCID mice
Text: The orthotopic xenograft mouse model of Hep3B2.1–7 human hepatic carcinoma was previously established. Tumors were created by injection of 2.5 × 10^6 Hep3B2.1-7 cells (ATCC, RRID:CVCL_0326; Virginia, Manassas, USA) into the main lobe of the liver of anaesthetized female SCID mice (C.B-17-Igh-1bPrkdc(scid)). […] Treatments were continued for 21 days. Treatment of animals was ceased when the body weight dropped below 85% of that on entry of the study. Only mice culled at the termination date were used to determine the tumor weight. The experiment was conducted by vivoPharm pty Ltd (Bundoora, Australia) in accordance with the principles outlined in the “Australian Code of Practice for the Care and Use of Animals for Scientific Purposes”, 7th Edition, 2004 (National Health and Medical Research Council, Canberra, Australia). All procedures involving animals were reviewed and approved by the University of Adelaide Animal Ethics Committee. The study was carried out in compliance with the ARRIVE guidelines (http://www.nc3rs.org.uk/page.asp?id=1357). […]
invasion assay. The ODs of the invaded cells were normalized relative to ODs from tissue […]
Orthotopic xenograft mouse model
The orthotopic xenograft mouse model of Hep3B2.1-7 human hepatic carcinom a was previously established. The experiment was conducted by vivoPharm pty Ltd (Australia) in accordance with the principles outlined in the Australian Code of Practice for the Care and Use of Animals for Scientific Purposes, 7th Edition, 2004 (National Health and Medical Research Council). Procedures involving the care and use of animals in thi s study were reviewed and approved by the University of Adelaide Animal Ethics Committee. The study was carried out in compliance with the ARRIVE guidelines
(http://www.nc3rs.org.uk/page.asp?id=1357).
The animals were delivered to the test facility 1 1 days prior inoculation. On arrival, all animals received a detailed physical examination, including body weight measurement by the […]
technical staff. […] Each a nimal was identified by a transponder (Bar Code Data Systems Pty Ltd, Botany Bay, NSW, Australia) that could be scanned with a barcode reader (DataMars LabMax I). The transponder was implanted by subcutaneous injection between the shoulder blades while the mouse was under isoflurane-induced anaesthesia. The animals were housed in groups of six in micro-isolator cages (two cages per group). Each cage was clearly labelled with a cage card indicating study number, group, gender, and prescribed dose concentration and dose volume. The animals were kept in a controlled environment (targeted ranges: temperature 21 ± 3°C, humidity 30 -70%, 15 air changes per hour), with a light/dark cycle each of 12 hours, and under barrier (quarantine) conditions. Temperature and relative humidity were monitored continuously. All animals were subjected to the same environmental conditions. A standard certified commercial rodent diet (Rat and Mouse Cubes, Specialty Feeds Pty Ltd, Glen Forrest, WA, Australia) and tap water were provided to the animals ad libitum. Food supply was sterilized by autoclaving, and water […]
supply was sterilized by acidification with hydrochloric acid (pH 2.4-2.7) by Laboratory Animal Services, University of Adelaide (Adelaide, SA, Australia). Additional feed (a nimal seed, Magill Grain Store, Magill, SA, Australia), as well as wet standard feed was provided to all animals from Day 7 onwards, as a measure to minimize body w eight loss. The extent of adverse reaction was assessed during the study and mice were culled if severe adverse […]
The age range of the mice were 12-16 weeks at
Hep3B2.1-7 human hepatic carcinoma cells were sourced from the American Type Culture […]
Collection (ATCC; Virginia, USA).

[2] = system: HCC cells; test: Western blots for acetylated α-Tubulin and p21; assay type: cell-based; details: 1 µM or 3 µM, 24 hours (Fig. S1C)
Method: C. Western blots for acetylated α-Tubulin, total α-Tubulin, p21 and GAPDH (loading control).
Cells were treated with vehicle control (0.1 % DMSO), 1 µM or 3 µM resminostat for 24 hours. Grouped blots were composed from cropped parts of individual blots for each antibody. Original blots with exposures and indicated cropped areas can be found in the supplementary information.
D. Cell line screen determining the EC50s of resminostat in 74 cell lines representing 14 different ca ncer indications. In addition, peripheral blood mononuclear cells (PBMCs) from healthy donors were tested. Each dot represents an EC50.
(100×, 78440; Thermo Scientific, Massachusetts, US). Following incubation for 1 h at 4°C, […]
The protein concentration of the
Fisher Scientific, Massachusetts, US ). Equal amounts of protein lysates and a pre-stained […]
US) and transferred to PVDF membranes. The membranes were probed using the relevant […]
of the blots to X-ray films. […]
to adjust brightness and contrast across entire images. No other image manipulations were […]
intracellular FACS staining.

SMILES: CN(C)Cc1ccc(S(=O)(=O)n2ccc(/C=C/C(=O)NO)c2)cc1 [resminostat, Resminostat]
- Survival ([1]; 15 mg/kg oral once daily): 10/12
- Tumour weight, Mean ([1]; 15 mg/kg oral once daily): 2.55 g
- Survival ([1]; 40 mg/kg oral once daily): 10/12
- Tumour weight, Mean ([1]; 40 mg/kg oral once daily): 1.83 g
- tumor weight compared to the vehicle control ([1]; daily resminostat 15 and 40 mg/kg, sorafenib 40 mg/kg, or combination (Fig. 1B)): significantly reduced tumor weight
- acetylation of α-Tubulin [2]: hyperacetylation
- p21 protein [2]: accumulation
